Experimental data: patent US8338565B2, “Macrocyclic compounds for inhibition of tumor necrosis factor alpha” (Ensemble Therapeutics Corporation, priority 2008, dated 2012)
Read-outs that look alike come from different tables or passages of the source. Numbered stars: 1 amine (or outer) side, 2 acyl side, 3 side chain; on linkers, the order of the positions; unused ones are H or OH. Bridge positions count the residues as written; N and C are the ends. Square brackets hold non-standard residues; d marks the D form. Peptide text beside a SMILES is read from it. Phe(4-(4-pyridyl)) = N[C@@H](Cc1ccc(-c2ccncc2)cc1)C(=O)O; Phe(4-CF3) = N[C@@H](Cc1ccc(C(F)(F)F)cc1)C(=O)O; Bip = N[C@@H](Cc1ccc(-c2ccccc2)cc1)C(=O)O; dBip = N[C@H](Cc1ccc(-c2ccccc2)cc1)C(=O)O; dPhe(4-NH2) = Nc1ccc(C[C@@H](N)C(=O)O)cc1; Phe(4-NH2) = Nc1ccc(C[C@H](N)C(=O)O)cc1; d(hPhe) = N[C@H](CCc1ccccc1)C(=O)O; 2Thi = N[C@@H](Cc1cccs1)C(=O)O; d2Thi = N[C@H](Cc1cccs1)C(=O)O; Suc = O=C(CCC(=O)[*:2])[*:1]

Key:
[1] = system: rat paw edema model; assay: Rat paw edema model (carrageenan), anti-inflammatory activity; format: in vivo, Sprague-Dawley (SD) rats
Protocol: Compounds 3, 4, 10 and 202 were tested in a rat paw edema model to determine anti-inflammatory activity. Seven groups (one for Vehicle A [15 mL PEG400, 3 mL Graves Grain alcohol (190 proof), 1.8 mL dimethylacetamide and 10.2 mL deionized water] alone as a negative control, one for Vehicle B [0.1M NaHCO3] alone as a negative control, one for each of the four test compounds dissolved in Vehicle A, and one for indomethacin dissolved in Vehicle B as a positive control), each group containing six Sprague-Dawley (SD) rats (180-200 g) randomized by weight. Initial paw volumes were measured by placing the right hind limb of the rat up to the top of the hock in a beaker of water sitting on a scale that had been tared to zero and recording the readout.
Rats were pre-treated with either i) one of the test compounds, or ii) a positive or negative control. Vehicle A alone and test compound dissolved in Vehicle A (Compound 3-1.0 mg/kg; Compound 4-0.4 mg/kg; Compound 10-0.5 mg/kg; Compound 202-0.3 mg/kg) were administered by intravenous injection. Vehicle B alone and indomethacin (5 mg/kg in 0.1M NaHCO3) was administered by intraperitoneal injection. Thirty minutes after this pretreatment, rats were anesthetized and injected with 0.1 mL of carrageenan (10 mg/mL in water) in the subplantar region of the right hind foot using a ½ inch 26 gauge needle attached to a 1 cc syringe.
At 2, 4 and 6 hours post-carrageenan injection, the right hind foot of each rat was measured for paw volume as described above.
We next investigated the effect of varying intravenous doses of Compound 202 (0.05, 0.10, 0.30, and 1.00 mg/kg) in the same model using the same protocol (6 rats per group). […] We also investigated the affect of oral dosing (10 mg/kg) of Compound 202 in the same model. For oral dosing, a 2.5 mg/mL suspension of Compound 202 was prepared in Vehicle A. Rats were orally administered 4 mL/kg of that suspension.

[2] = target: T1, TNFα / TNFα receptor (TNFα R1/Fc) (Homo sapiens, UniProt P01375); assay: Inhibition of binding of TNFα to the TNFα receptor (plate ELISA competition); conditions: Table 2; read-out: Activity (IC50, inhibition of TNFα binding to TNFα R1/Fc)
T1 construct: purchased R&D Systems
T1 sequence (P01375 77-233 limits assumed, species assumed): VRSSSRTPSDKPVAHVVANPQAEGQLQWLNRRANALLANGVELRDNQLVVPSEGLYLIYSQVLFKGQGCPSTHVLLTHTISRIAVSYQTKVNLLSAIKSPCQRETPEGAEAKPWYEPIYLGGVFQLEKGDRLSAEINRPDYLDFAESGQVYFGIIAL
Method in brief: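 Plates were coated with TNFα at 15 nM. Test compound and 8.33 nM receptor-Fc (PBST, 2% DMSO) were first mixed in solution for 30 min at room temperature, then transferred to the plates for another 30 min. Competition was read by absorbance at 450 nm after HRP anti-human IgG Fc detection with TMB.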

[3] = system: TNF-α (degradation of IkB in HeLa cells or A431 cells); assay: Human cell-based assay: inhibition of TNF-α induced degradation of IkB; conditions: for inhibition at 5 µM: read-out: Inhibition at Various Compound Concentrations, 5 μM; for inhibition at 10 µM: read-out: Inhibition at Various Compound Concentrations, 10 μM
[4] = Table 8, 1 mg/kg IV, 2 h post-carrageenan
[5] = Table 8, 1 mg/kg IV, 4 h post-carrageenan
[6] = Table 8, 1 mg/kg IV, 6 h post-carrageenan
[7] = Table 5, 1 mg/kg IV, 2 h post-carrageenan
[8] = Table 5, 1 mg/kg IV, 4 h post-carrageenan
[9] = Table 5, 1 mg/kg IV, 6 h post-carrageenan
[10] = 5 μM compound, HeLa or A431 cells
[11] = 10 μM compound, HeLa or A431 cells

SMILES | Change in Paw Volume [1, 4] [mL] | Change in Paw Volume [1, 5] [mL] | Change in Paw Volume [1, 6] [mL] | IC50 [2] [µM] | inhibition at 5 µM [3, 10] [%] | inhibition at 10 µM [3, 11] [%] | further results
O=C1CCC(=O)N[C@@H](Cc2cccs2)C(=O)N[C@H](Cc2ccc(-c3ccccc3)cc2)C(=O)N[C@@H](Cc2ccccc2)C(=O)N[C@H](C(=O)O)Cc2ccc(cc2)N1 [Compound 493] ([2Thi][dBip]F[Phe(4-NH2)]-OH; linker N-4 via Suc) | 1.04 ± 0.15 | 1.12 ± 0.10 | 1.03 ± 0.15 | < 10 | – | – | –
O=C1COc2ccc(cc2)C[C@@H](C(=O)O)NC(=O)[C@H](CCc2ccccc2)NC(=O)[C@@H](Cc2ccc(-c3ccccc3)cc2)NC(=O)[C@H](Cc2ccncc2)N1 [Compound 506] | – | – | – | < 10 | – | – | Change in Paw Volume [1, 7]: 0.74 ± 0.18 mL; Change in Paw Volume [1, 8]: 1.05 ± 0.17 mL; Change in Paw Volume [1, 9]: 0.86 ± 0.15 mL
O=C1COc2ccc(cc2)C[C@@H](C(=O)O)NC(=O)[C@H](Cc2ccccc2)NC(=O)[C@H](Cc2ccc(-c3ccc(NC(=O)OCc4ccccc4)cc3)cc2)NC(=O)[C@H](Cc2cccs2)N1 [Compound 362] | – | – | – | < 10 | – | – | Change in Paw Volume [1, 7]: 1.17 ± 0.07 mL; Change in Paw Volume [1, 8]: 1.22 ± 0.21 mL; Change in Paw Volume [1, 9]: 1.15 ± 0.19 mL; inhibition at 5 µM [3]: < 10%; inhibition at 10 µM [3]: 10 to 50%
O=C1CCC(=O)N[C@@H](Cc2cccs2)C(=O)N[C@H](Cc2ccc(-c3ccccc3)cc2)C(=O)N[C@@H](Cc2ccccc2)C(=O)N[C@@H](C(=O)O)Cc2ccc(cc2)N1 [Compound 500] ([2Thi][dBip]F[dPhe(4-NH2)]-OH; linker N-4 via Suc) | 0.98 ± 0.24 | 1.07 ± 0.21 | 0.98 ± 0.14 | 10 to 30 | – | – | –
O=C1CCC(=O)N[C@H](Cc2cccs2)C(=O)N[C@@H](Cc2ccc(-c3ccccc3)cc2)C(=O)N[C@H](Cc2ccccc2)C(=O)N[C@H](C(=O)N[C@@H](Cc2ccccc2)C(=O)O)Cc2ccc(cc2)N1 [Compound 10] ([d2Thi][Bip][dF][Phe(4-NH2)]F-OH; linker N-4 via Suc) | – | – | – | 10 to 30 | – | – | Change in Paw Volume ([1]; Table 3, 0.5 mg/kg IV, 2 h post-carrageenan): 0.54 ± 0.23 mL; Change in Paw Volume ([1]; Table 3, 0.5 mg/kg IV, 4 h post-carrageenan): 1.11 ± 0.31 mL; Change in Paw Volume ([1]; Table 3, 0.5 mg/kg IV, 6 h post-carrageenan): 1.23 ± 0.28 mL; inhibition at 25 µM ([3]; 25 μM compound, HeLa or A431 cells, read-out: Inhibition at Various Compound Concentrations, 25 μM): > 80%
O=C(O)CCCNC(=O)[C@@H]1Cc2ccc(cc2)OCC(=O)N[C@@H](Cc2cccs2)C(=O)N[C@@H](Cc2ccc(-c3ccccc3)cc2)C(=O)N[C@@H](Cc2ccccc2)C(=O)N1 [Compound 342] | – | – | – | < 10 | < 10 | 10 to 50 | Change in Paw Volume ([1]; Table 4, 1 mg/kg IV, 2 h post-carrageenan): 1.36 ± 0.10 mL; Change in Paw Volume ([1]; Table 4, 1 mg/kg IV, 4 h post-carrageenan): 1.49 ± 0.20 mL; Change in Paw Volume ([1]; Table 4, 1 mg/kg IV, 6 h post-carrageenan): 1.51 ± 0.15 mL
O=C1CCC(=O)N[C@H](CCc2ccccc2)C(=O)N[C@@H](Cc2ccc(C(F)(F)F)cc2)C(=O)N[C@H](Cc2ccccc2)C(=O)N[C@@H](C(=O)O)Cc2ccc(cc2)N1 [Compound 3] ([d(hPhe)][Phe(4-CF3)][dF][dPhe(4-NH2)]-OH; linker N-4 via Suc) | – | – | – | 10 to 30 | < 10 | < 10 | Change in Paw Volume ([1]; Table 3, 1.0 mg/kg IV, 2 h post-carrageenan): 0.69 ± 0.14 mL; Change in Paw Volume ([1]; Table 3, 1.0 mg/kg IV, 4 h post-carrageenan): 1.16 ± 0.32 mL; Change in Paw Volume ([1]; Table 3, 1.0 mg/kg IV, 6 h post-carrageenan): 1.22 ± 0.31 mL
O=C1CCC(=O)N[C@H](CCc2ccccc2)C(=O)N[C@@H](Cc2ccc(-c3ccncc3)cc2)C(=O)N[C@H](Cc2ccccc2)C(=O)N[C@H](C(=O)O)Cc2ccc(cc2)N1 [Compound 419] ([d(hPhe)][Phe(4-(4-pyridyl))][dF][Phe(4-NH2)]-OH; linker N-4 via Suc) | 1.22 ± 0.21 | 1.32 ± 0.18 | 1.16 ± 0.16 | 10 to 30 | < 10 | < 10 | –
